This note sets out measurements from ChEMBL document CHEMBL5512683, “Discovery of Novel ERα and Aromatase Dual-Targeting PROTAC Degraders to Overcome Endocrine-Resistant Breast Cancer” (J Med Chem, 2024).

Series [1] concerns MCF7. Put plainly: Antiproliferative activity against human resistant MCF7 cells harboring ERalpha Y537S mutant at LBD assessed as cell viability incubated for 96 hrs by CCK8 assay. Particulars: MCF7, 96 h; call rule not given here.
Series [2] relates to MCF7. Put plainly: Antiproliferative activity against human resistant MCF7 cells harboring ERalpha D538G mutant at LBD assessed as cell viability incubated for 96 hrs by CCK8 assay. Particulars: MCF7, 96 h.
Series [3] deals with MCF7. Put plainly: Antiproliferative activity against human resistant MCF7 cells harboring EGFR assessed as cell viability incubated for 96 hrs by CCK8 assay. Particulars: MCF7, 96 h.
Series [4] has as its system MCF7. Put plainly: Anti-proliferative activity against ERalpha positive human MCF7 cells incubated for 96 hrs by CCK8 assay. Particulars: MCF7, 96 h.
Series [5] in a line: Anti-proliferative activity against human MCF-10A cells incubated for 96 hrs by CCK8 assay. The format is toxicity, cell-based.
A further series has as its target T1, Aromatase (Homo sapiens, UniProt P11511).
T1 sequence (P11511 whole entry): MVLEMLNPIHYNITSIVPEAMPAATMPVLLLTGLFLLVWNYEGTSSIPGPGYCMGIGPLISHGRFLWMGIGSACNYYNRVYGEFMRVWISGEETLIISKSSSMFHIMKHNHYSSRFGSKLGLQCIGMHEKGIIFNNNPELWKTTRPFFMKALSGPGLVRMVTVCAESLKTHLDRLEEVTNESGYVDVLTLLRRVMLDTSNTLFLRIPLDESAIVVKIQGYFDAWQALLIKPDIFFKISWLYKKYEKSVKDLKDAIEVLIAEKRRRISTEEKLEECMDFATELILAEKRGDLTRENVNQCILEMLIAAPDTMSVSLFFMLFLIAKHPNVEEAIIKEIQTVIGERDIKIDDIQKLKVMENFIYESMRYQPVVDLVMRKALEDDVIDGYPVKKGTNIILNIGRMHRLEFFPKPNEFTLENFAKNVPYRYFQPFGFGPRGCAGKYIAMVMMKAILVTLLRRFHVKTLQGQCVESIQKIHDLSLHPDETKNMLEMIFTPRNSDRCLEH
Put plainly: Inhibition of recombinant human aromatase using ARO substrate/NADP+ mixture by fluorescence assay.

The target of the next series is Estrogen receptor beta (Homo sapiens, UniProt Q92731). Put plainly: Binding affinity to human ERbeta assessed as inhibition constant incubated under dark condition for 2 hrs by competitive fluorometric binding assay.
Estrogen receptor beta, sequence (Q92731 whole entry): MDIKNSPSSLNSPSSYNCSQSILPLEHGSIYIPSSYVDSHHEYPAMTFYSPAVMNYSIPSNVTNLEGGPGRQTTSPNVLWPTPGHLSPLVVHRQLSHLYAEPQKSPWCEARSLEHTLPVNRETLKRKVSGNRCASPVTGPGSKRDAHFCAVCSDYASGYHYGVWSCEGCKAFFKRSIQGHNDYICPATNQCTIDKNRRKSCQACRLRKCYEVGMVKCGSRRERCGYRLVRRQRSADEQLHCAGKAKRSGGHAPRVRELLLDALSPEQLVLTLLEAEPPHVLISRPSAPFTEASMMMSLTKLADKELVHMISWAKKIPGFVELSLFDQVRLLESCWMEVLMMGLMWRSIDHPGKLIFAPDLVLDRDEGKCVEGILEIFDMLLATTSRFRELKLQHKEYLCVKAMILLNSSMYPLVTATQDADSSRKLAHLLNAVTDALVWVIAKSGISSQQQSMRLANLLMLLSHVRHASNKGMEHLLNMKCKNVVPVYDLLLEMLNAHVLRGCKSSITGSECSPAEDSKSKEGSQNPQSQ
Series [6] concerns the target von Hippel-Lindau disease tumor suppressor/Aromatase (Homo sapiens, UniProt P11511+P40337). Put plainly: PROTAC activity at human ARO/VHL E3 ligase in human MCF-7 cells assessed as degradation of ARO at 1 uM incubated for 24 hrs by Western blot analysis. The format is cell-based. Particulars: mcf7, 24 h.

von Hippel-Lindau disease tumor suppressor/Aromatase, sequence (P40337 whole entry, one chain of several): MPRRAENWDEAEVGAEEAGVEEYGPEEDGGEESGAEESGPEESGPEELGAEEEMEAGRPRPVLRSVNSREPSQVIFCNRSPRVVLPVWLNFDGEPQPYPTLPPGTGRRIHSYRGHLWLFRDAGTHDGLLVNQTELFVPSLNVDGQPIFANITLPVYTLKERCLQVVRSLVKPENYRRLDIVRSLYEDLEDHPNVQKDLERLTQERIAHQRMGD

Regarding `Cc1ncsc1-c1ccc([C@H](C)NC(=O)[C@@H]2C[C@@H](O)CN2C(=O)[C@@H](NC(=O)CCCCCOc2ccc(N(CC(F)(F)F)S(=O)(=O)C3CC4OC3C(c3ccc(-n5cncn5)cc3)=C4c3ccc(O)cc3)cc2)C(C)(C)C)cc1` (stereo partly specified), the IC50 is 4 µM with MCF7 [1]; 0.69 µM in the series with MCF7 [2]; 0.63 µM in the series on MCF7 [3]; 0.56 µM in the series with MCF7 [4]; over 100 µM on Aromatase. In addition, the IC50 at 96 h in series [5] was over 100 µM.
Turning to `CC/C(=C(\c1ccc(O)cc1)c1ccc(OCCN(C)C)cc1)c1ccccc1` [AFIMOXIFENE], in series [5], half-maximal inhibition (IC50 at 96 h) was put at 21 µM. The IC50 at Aromatase was over 100 µM.
As to `O=C(COc1cccc2c1C(=O)N(C1CCC(=O)NC1=O)C2=O)NCCCOc1ccc(N(CC(F)(F)F)S(=O)(=O)C2CC3OC2C(c2ccc(-n4ccnc4)cc2)=C3c2ccc(O)cc2)cc1` (stereo unspecified), the IC50 with MCF7 [1] is 9.5 µM; in the series on MCF7 [2] it was 6.4 µM; in the series with MCF7 [3] it was 25 µM; with MCF7 [4], 8.7 µM; on Aromatase it was over 100 µM. For the same compound, the Ki on Estrogen receptor beta was over 79 µM. This compound also registered an IC50 at 96 h in series [5] of over 100 µM.
As to `Cc1ncsc1-c1ccc([C@H](C)NC(=O)[C@@H]2C[C@@H](O)CN2C(=O)[C@@H](NC(=O)CCCCCCCOc2ccc(N(CC(F)(F)F)S(=O)(=O)C3CC4OC3C(c3ccc(-n5ccnc5)cc3)=C4c3ccc(O)cc3)cc2)C(C)(C)C)cc1` (stereo partly specified), the half-maximal inhibitory concentration (IC50) with MCF7 [1] was 30 µM; in the series with MCF7 [2] it was 29 µM; with MCF7 [3], 4.7 µM; in the series with MCF7 [4], 1.8 µM; on Aromatase, 10 µM. The outcome in series [6] was Active. For the same compound, the half-inhibitory concentration (IC50) at 96 h in series [5] is over 100 µM.
Consider `COc1ccc(N(CC(F)(F)F)S(=O)(=O)C2CC3OC2C(c2ccc(O)cc2)=C3c2ccc(O)cc2)cc1` (stereo unspecified), for which, at Aromatase, the IC50 was over 100 µM.
As to `Cc1ncsc1-c1ccc([C@H](C)NC(=O)[C@@H]2C[C@@H](O)CN2C(=O)[C@@H](NC(=O)CCCCCCCCCOc2ccc(N(CC(F)(F)F)S(=O)(=O)C3CC4OC3C(c3ccc(-n5ccnc5)cc3)=C4c3ccc(O)cc3)cc2)C(C)(C)C)cc1` (stereo partly specified), the IC50 is 100 µM with MCF7 [1]; over 100 µM in the series with MCF7 [2]; over 100 µM in the series on MCF7 [3]; 0.33 µM in the series with MCF7 [4]; over 100 µM at Aromatase. Further, on Estrogen receptor beta, the Ki is over 79 µM. Further, the result in series [6] was Active. In series [5], this compound yielded an IC50 at 96 h of over 100 µM.
For `Cc1ncsc1-c1ccc([C@H](C)NC(=O)[C@@H]2C[C@@H](O)CN2C(=O)[C@@H](NC(=O)CCCCCCCCCCOc2ccc(N(CC(F)(F)F)S(=O)(=O)C3CC4OC3C(c3ccc(-n5ccnc5)cc3)=C4c3ccc(O)cc3)cc2)C(C)(C)C)cc1` (stereo partly specified), the 50% inhibitory concentration (IC50) is 22 µM in the series on MCF7 [1]; over 100 µM with MCF7 [2]; over 100 µM with MCF7 [3]; 4.9 µM in the series with MCF7 [4]; over 100 µM on Aromatase. The outcome in series [6] was Active. The compound further showed a 50% inhibitory concentration (IC50) at 96 h in series [5] of over 100 µM.
Take `Cc1ncsc1-c1ccc([C@H](C)NC(=O)[C@@H]2C[C@@H](O)CN2C(=O)[C@@H](NC(=O)CCCCCCCCCCCOc2ccc(N(CC(F)(F)F)S(=O)(=O)C3CC4OC3C(c3ccc(-n5ccnc5)cc3)=C4c3ccc(O)cc3)cc2)C(C)(C)C)cc1` (stereo partly specified): the concentration for half-maximal inhibition (IC50) is 3.5 µM with MCF7 [1]; 0.23 µM in the series with MCF7 [2]; over 100 µM with MCF7 [3]; 2 µM in the series on MCF7 [4]; over 100 µM at Aromatase. Also, the inhibition constant Ki on Estrogen receptor beta was over 79 µM. Besides, the outcome in series [6] was Active. The IC50 at 96 h in series [5] was over 100 µM.
In the case of `Cc1ncsc1-c1ccc([C@H](C)NC(=O)[C@@H]2C[C@@H](O)CN2C(=O)[C@@H](NC(=O)CCCCCCCCOc2ccc(N(CC(F)(F)F)S(=O)(=O)C3CC4OC3C(c3ccc(-n5ccnc5)cc3)=C4c3ccc(O)cc3)cc2)C(C)(C)C)cc1` (stereo partly specified), the 50% inhibitory concentration (IC50) with MCF7 [1] is 100 µM; with MCF7 [2] it was 1.8 µM; with MCF7 [3], 1.4 µM; in the series on MCF7 [4] it was 1.3 µM; at Aromatase, over 100 µM. On Estrogen receptor beta, the Ki was over 79 µM. In addition, the outcome in series [6] was Active. Also, the IC50 at 96 h in series [5] was over 100 µM.
`Cc1ncsc1-c1ccc([C@H](C)NC(=O)[C@@H]2C[C@@H](O)CN2C(=O)[C@@H](NC(=O)CCCCCCOc2ccc(N(CC(F)(F)F)S(=O)(=O)C3CC4OC3C(c3ccc(-n5ccnc5)cc3)=C4c3ccc(O)cc3)cc2)C(C)(C)C)cc1` (stereo partly specified): the IC50 was over 100 µM in the series on MCF7 [1]; 1.7 µM in the series with MCF7 [2]; 5.5 µM in the series with MCF7 [3]; 2.3 µM in the series with MCF7 [4]; 5.2 µM on Aromatase. For the same compound, the result in series [6] was Active. Also, in series [5], the IC50 at 96 h is over 100 µM.
Consider `Cc1ncsc1-c1ccc([C@H](C)NC(=O)[C@@H]2C[C@@H](O)CN2C(=O)[C@@H](NC(=O)COCCOCCOCCOCCOc2ccc(N(CC(F)(F)F)S(=O)(=O)C3CC4OC3C(c3ccc(-n5ccnc5)cc3)=C4c3ccc(O)cc3)cc2)C(C)(C)C)cc1` (stereo partly specified), for which the 50% inhibitory concentration (IC50) was 100 µM in the series on MCF7 [1]; 26 µM with MCF7 [2]; 17 µM in the series on MCF7 [3]; 2.4 µM with MCF7 [4]; 0.64 µM at Aromatase. Further, in series [6], the outcome was Active. The compound further showed an IC50 at 96 h in series [5] of over 100 µM.
For the compound `Cc1ncsc1-c1ccc([C@H](C)NC(=O)[C@@H]2C[C@@H](O)CN2C(=O)[C@@H](NC(=O)CCCCOc2ccc(N(CC(F)(F)F)S(=O)(=O)C3CC4OC3C(c3ccc(-n5ccnc5)cc3)=C4c3ccc(O)cc3)cc2)C(C)(C)C)cc1` (stereo partly specified), the half-maximal inhibitory concentration (IC50) in the series with MCF7 [1] is over 100 µM; with MCF7 [2] it was 100 µM; with MCF7 [3], 2.2 µM; in the series on MCF7 [4], 0.6 µM; on Aromatase, 0.32 µM. The result in series [6] was Active. The same compound yielded an IC50 at 96 h in series [5] of over 100 µM.
Consider `Cc1ncsc1-c1ccc([C@H](C)NC(=O)[C@@H]2C[C@@H](O)CN2C(=O)[C@@H](NC(=O)CCCOc2ccc(N(CC(F)(F)F)S(=O)(=O)C3CC4OC3C(c3ccc(-n5ccnc5)cc3)=C4c3ccc(O)cc3)cc2)C(C)(C)C)cc1` (stereo partly specified), for which the IC50 in the series with MCF7 [1] was over 100 µM; in the series with MCF7 [2] it was over 100 µM; in the series with MCF7 [3], over 100 µM; in the series on MCF7 [4], 0.13 µM; on Aromatase, 1.2 µM. The result in series [6] was Active. In series [5], the IC50 at 96 h was over 100 µM.
Regarding `O=C(COc1cccc2c1C(=O)N(C1CCC(=O)NC1=O)C2=O)NCCCCCOc1ccc(N(CC(F)(F)F)S(=O)(=O)C2CC3OC2C(c2ccc(-n4ccnc4)cc2)=C3c2ccc(O)cc2)cc1` (stereo unspecified), the concentration for half-maximal inhibition (IC50) in the series on MCF7 [1] is 23 µM; in the series on MCF7 [2] it was 3.6 µM; in the series on MCF7 [3], 23 µM; in the series on MCF7 [4] it was 9.3 µM; on Aromatase, over 100 µM. In addition, the inhibition constant Ki on Estrogen receptor beta was over 79 µM. This compound also returned a 50% inhibitory concentration (IC50) at 96 h in series [5] of over 100 µM.
For the compound `Cc1ncsc1-c1ccc([C@@H](C)NC(=O)[C@H]2C[C@H](O)CN2C(=O)[C@H](NC(=O)COCCOCCOCCOc2ccc(N(CC(F)(F)F)S(=O)(=O)C3CC4OC3C(c3ccc(-n5ccnc5)cc3)=C4c3ccc(O)cc3)cc2)C(C)(C)C)cc1` (stereo partly specified), the 50% inhibitory concentration (IC50) is 100 µM with MCF7 [1]; over 100 µM with MCF7 [2]; 7.3 µM in the series with MCF7 [3]; 0.51 µM in the series on MCF7 [4]; 2.6 µM on Aromatase. In series [6], the result was Active. Further, in series [5], the IC50 at 96 h is over 100 µM.
